Laboratory results as given in publication PMC9845330 (Communications Biology, 2023).
Non-standard residues stand in square brackets, D forms with d. Residues, ends and D or L forms follow the SMILES beside them. *: point of attachment. X1 = O=C(CCCC[C@@H]1SC[C@@H]2NC(=O)N[C@@H]21)NCCCOCCOCCOCCCN*; PEG12 = NCCOCCOCCOCCOCCOCCOCCOCCOCCOCCOCCOCCOCCC(=O)O

Columns and labels:
[1] = tested on: normal human bronchial epithelial cell line (HBEC); test: Cell internalization by flow cytometry in normal control cells; assay type: cell-based; details: 50 nM, 1 h
Description: Optimizing MGS4 as a monomer is efficient but the optimal valency of the truncated peptide may be different than that of the full-length peptide. The peptide was synthesized as a monomer (MGS4_V8), dimer (MGS4_V9), and tetramer (MGS4_V10). To obtain quantitative data, we moved from measuring the relative fluorescence of dye-labeled peptide to the determination of the average number of dye molecules internalized per cell. […] The dimer MGS4_V9 has an EC50 7-fold lower indicating there is a synergistic effect in going from a monomer to a dimer (Fig. 2a and Table 2). However, there is only a 2-fold decrease in going from a dimer to a tetrameric peptide (MGS4_V10). We also calculated the EC50 on three other NSCLC cell lines (Table 2 and Supplementary Figure 3). […]
Non-internalized peptide was removed, and the mean number of peptides internalized per cell was determined to calculate the EC50. […] Error bars, in black, represent standard error measurements and are below the height of the symbols in some cases. b The average number of peptide molecules per cell at 50 nM at 1 h was determined on four NSCLC cell lines and one normal human bronchial epithelial cell line (HBEC). […]
Biotinylated peptide was conjugated to streptavidin-R-phycoerythrin or streptavidin-Alexa Fluor 647 (1:1 molar ratio) for 30 min. […] Flow cytometry was performed on a BD FACSCelesta, and data were analyzed on Flowing software. […]

H358 cells = test: Cell internalization by flow cytometry, absolute uptake (molecules per cell); assay type: cell-based, human; details: for Molecules Internalized Per Cell: Average
Description: (§1) Optimizing MGS4 as a monomer is efficient but the optimal valency of the truncated peptide may be different than that of the full-length peptide. The peptide was synthesized as a monomer (MGS4_V8), dimer (MGS4_V9), and tetramer (MGS4_V10). To obtain quantitative data, we moved from measuring the relative fluorescence of dye-labeled peptide to the determination of the average number of dye molecules internalized per cell. […] The dimer MGS4_V9 has an EC50 7-fold lower indicating there is a synergistic effect in going from a monomer to a dimer (Fig. 2a and Table 2). However, there is only a 2-fold decrease in going from a dimer to a tetrameric peptide (MGS4_V10). We also calculated the EC50 on three other NSCLC cell lines (Table 2 and Supplementary Figure 3). […] The average number of peptides internalized per cell at saturating conditions varies, with H1993 cells internalizing the highest number of peptides at all three valencies (Table 2). This is likely due to differing levels of receptor expression on the cell type. The average molecules internalized at 50 nM in one hour follows the same trend (Fig. 2b).
(§2) Biotinylated peptide was conjugated to streptavidin-R-phycoerythrin or streptavidin-Alexa Fluor 647 (1:1 molar ratio) for 30 min. The open binding sites on streptavidin were quenched with RPMI 1640 and diluted to the indicated concentration. Tumor cells were grown to 90% confluency in a 12 well plate, then incubated with 500 µl peptide-dye conjugate at 37 °C. After 1 h, peptide was removed, and the cells were washed 3x with PBS (137 mM NaCl, 2.7 mM KCl, 10 mM Na2HPO4, 1.8 mM KH2PO4, pH 7.4), 2x with 0.1 M HCl-glycine pH2.2 in 0.9% NaCl, and 1x PBS rinse. Cells were removed by trypsinization. Flow cytometry was performed on a BD FACSCelesta, and data were analyzed on Flowing software. Cells were gated based on the forward and side scatter to include only viable cells and a minimum of 10,000 events were counted. A region containing <5% of the cells in the negative control was established, and relative peptide uptake by the mean fluorescence intensity of that population. For absolute peptide uptake per cell, a standard curve was generated using Quantum™ Alexa Fluor 647 microspheres (Bangs Laboratory, Fishers, IN). A representative linear regression showing the correlation of molecule equivalents soluble fluorophores (MESF) vs the mean fluorescence intensity (MFI) is shown in Supplemental Figure 6. Cells were gated based on the forward and side scatter to include only viable cells and a minimum of 10,000 events were counted. MFI was determined at 50% at peak height. Molecules internalized per cell were determined by the standard curve relating MESF to MFI and divided by the number dye molecules/MGS conjugate. An example is shown in supplemental Figure 7. GraphPad Prism® was used for non-linear regression curve fitting to calculate an EC50. Parameters and statistical analysis are provided (Supplementary Tables 2–6). Experiments were repeated a minimum of three times.
(§3) For all EC50 determinations, each peptide variant was tested on the indicated cell line with a minimum of 3 biological replicates and analyzed individually by flow cytometry. The standard error measurement for each concentration is indicated by error bars in the figures. For experiments in which absolute number of molecules internalized was measured at different concentrations, EC50 were determined by GraphPad Prism® using nonlinear regression curve fitting for log(agonist) vs. response–Variable slope (four parameters). For the truncation experiments, EC50 were determined using one-site-specific binding. Similarly, IC50s were calculated using GraphPad Prism® using log(agonist) vs. response–Variable slope (four parameters). A minimum of four biological replicates were performed for each variant and cell line. Data for individual experiments are included in supplementary files. Parameters and statistical analysis are provided in Supplementary Tables 2–7. […]

H1993 cells = test: as above; assay type: cell-based, human; details: for Molecules Internalized Per Cell: Average
Description: as §1, §2, §3

H2009 cells = test: as above; assay type: cell-based, human; details: for Molecules Internalized Per Cell: Average
Description: as §1, §2, §3

Q: For CC(=O)N[C@@H](Cc1ccccc1)C(=O)N[C@@H](Cc1c[nH]cn1)C(=O)N[C@@H](C)C(=O)N[C@H](C(=O)N1CCC[C@H]1C(=O)N[C@@H](CCC(N)=O)C(=O)N[C@@H](CO)C(=O)N[C@@H](Cc1ccccc1)C(=O)N[C@@H](Cc1ccc(O)cc1)C(=O)N[C@H](C(=O)NCCOCCOCCOCCOCCOCCOCCOCCOCCOCCOCCOCCOCCC(=O)N[C@@H](CCC(=O)NCCCOCCOCCOCCCNC(=O)CCCC[C@@H]1SC[C@@H]2NC(=O)N[C@@H]21)C(N)=O)[C@@H](C)O)C(C)C [MGS4_V8] (Ac-FHAVPQSFYT[PEG12]E(X1)-NH2), which “internalization in normal cells” value [1] is on record?
A: The value was “minimal internalization”.

Q: And the “Molecules Internalized Per Cell” value (H358 cells; 0.01 nM)?
A: Its value is 0.

Q: And the “Molecules Internalized Per Cell” value (H358 cells; 0.1 nM)?
A: Its value is 11.

Q: What about the “Molecules Internalized Per Cell” value (H358 cells; 1 nM) of the same compound?
A: Its value is 140.

Q: And the “Molecules Internalized Per Cell” value (H358 cells; 5 nM)?
A: Its value is 2481.

Q: What about the “Molecules Internalized Per Cell” value (H358 cells; 10 nM) of the same compound?
A: The value was 4840.

Q: What about the “Molecules Internalized Per Cell” value (H358 cells; 20 nM) of the same compound?
A: Its value is 25103.

Q: And the “Molecules Internalized Per Cell” value (H358 cells; 30 nM)?
A: The value was 36064.

Q: And the “Molecules Internalized Per Cell” value (H358 cells; 40 nM)?
A: Its value is 47392.

Q: What about the “Molecules Internalized Per Cell” value (H358 cells; 50 nM) of the same compound?
A: Its value is 58761.

Q: What about the “Molecules Internalized Per Cell” value (H358 cells; 60 nM) of the same compound?
A: Its value is 66918.

Q: What about the “Molecules Internalized Per Cell” value (H358 cells; 80 nM) of the same compound?
A: Its value is 68326.

Q: What about the “Saturation (molecules)” value (H358 cells; H358 Cells) of the same compound?
A: Its value is 85,500 ± 39600 molecules.

Q: What about the HillSlope (H358 cells; Supplementary Table 5) of the same compound?
A: Its HillSlope is 1.829.

Q: And the LogIC50 (H358 cells; Supplementary Table 5)?
A: Its LogIC50 is -7.470.

Q: And the Top (H358 cells; Supplementary Table 5)?
A: Its Top is 85477.

Q: And the “Molecules Internalized Per Cell” value (H1993 cells; 0.01 nM)?
A: Its value is 0.

Q: What about the “Molecules Internalized Per Cell” value (H1993 cells; 1 nM) of the same compound?
A: Its value is 57.

Q: What about the “Molecules Internalized Per Cell” value (H1993 cells; 10 nM) of the same compound?
A: The value was 3584.

Q: And the “Molecules Internalized Per Cell” value (H1993 cells; 20 nM)?
A: Its value is 36850.

Q: What about the “Molecules Internalized Per Cell” value (H1993 cells; 30 nM) of the same compound?
A: The value was 42262.

Q: What about the “Molecules Internalized Per Cell” value (H1993 cells; 40 nM) of the same compound?
A: Its value is 55296.

Q: What about the “Molecules Internalized Per Cell” value (H1993 cells; 50 nM) of the same compound?
A: The value was 88510.

Q: What about the “Molecules Internalized Per Cell” value (H1993 cells; 60 nM) of the same compound?
A: Its value is 76327.

Q: And the “Saturation (molecules)” value (H1993 cells; H1993 Cells)?
A: The value was 119,000 ± 57,500 molecules.

Q: What about the HillSlope (H1993 cells; Supplementary Table 6) of the same compound?
A: Its HillSlope is 1.706.

Q: And the LogIC50 (H1993 cells; Supplementary Table 6)?
A: Its LogIC50 is -7.427.

Q: What about the Top (H1993 cells; Supplementary Table 6) of the same compound?
A: The Top was 118643.

Q: What about the “Molecules Internalized Per Cell” value (H2009 cells; 1 nM) of the same compound?
A: Its value is 0.

Q: And the “Molecules Internalized Per Cell” value (H2009 cells; 10 nM)?
A: Its value is 1006.

Q: What about the “Molecules Internalized Per Cell” value (H2009 cells; 20 nM) of the same compound?
A: Its value is 3516.

Q: And the “Molecules Internalized Per Cell” value (H2009 cells; 30 nM)?
A: The value was 15550.

Q: And the “Molecules Internalized Per Cell” value (H2009 cells; 40 nM)?
A: The value was 22008.

Q: What about the “Molecules Internalized Per Cell” value (H2009 cells; 50 nM) of the same compound?
A: Its value is 28764.

Q: And the “Molecules Internalized Per Cell” value (H2009 cells; 60 nM)?
A: The value was 30384.

Q: What about the “Molecules Internalized Per Cell” value (H2009 cells; 80 nM) of the same compound?
A: The value was 38906.

Q: What about the “Saturation (molecules)” value (H2009 cells; H2009 Cells) of the same compound?
A: The value was 40,600 ± 2630 molecules.

Q: And the HillSlope (H2009 cells; Supplementary Table 4)?
A: The HillSlope was 3.175.

Q: And the LogIC50 (H2009 cells; Supplementary Table 4)?
A: Its LogIC50 is -7.424.

Q: And the Top (H2009 cells; Supplementary Table 4)?
A: The Top was 40633.
